Results on one molecule are retold here after patent US7572768B2, “Methods for identifying compounds for regulating muscle mass or function using corticotropin releasing factor receptors” (priority 2001, dated 2009).

Assay [1] relates to glucocorticoid-induced muscle atrophy. In words: mouse glucocorticoid-induced atrophy model. The assay is classed as in vivo. The settings on record: male mice, dexamethasone 1.2 mg/kg/d in drinking water, 0.1-1.0 mg/kg/d by osmotic minipump, nine days. The method, then: Legend: A—water only with no dexamethasone included in drinking water (non-atrophied control); B—water+dexamethasone (atrophied control); C—sauvagine (0.1 mg/kg/d)+dexamethasone; D—sauvagine (0.3 mg/kg/d)+dexamethasone; E—sauvagine (1.0 mg/kg/d)+dexamethasone; *—p≦0.05 compared to water; #—p≦0.05 compared to water+dexamethasone. Following the addition of the glucocorticoid, dexamethasone, to the drinking water (1.2 mg/kg/d), male mice were dosed with the above indicated agents or vehicle control (physiological saline) by continuous infusion using an Alzet osmotic minipump at 5 μl/hr until the end of the experimental period (without additional theophylline). The daily delivered dose of sauvagine is as indicated above. Minipump implantation was performed at the time of initiation of dexamethasone exposure. Nine days following the initiation of dosing sauvagine, the medial gastrocnemius and tibialis anterior muscles were removed and weighed to determine the degree of atrophy.
The glucocorticoid-induced atrophy model involves the administration of a glucocorticoid to the test animal, e.g., 1.2 mg/kg/day of dexamethasone in the drinking water. […] At various times following glucocorticoid administration, the extent of atrophy in the affected muscles is analyzed as described above for the denervation model.

For assay [2], the system named is disuse-induced atrophy of skeletal muscle. As to the kind of experiment: mouse leg casting disuse atrophy model. The assay is classed as in vivo. The settings on record: ten days. As for the experimental part: (§1) Legend: A—physiological saline (control); B—theophylline; C—sauvagine (0.03 mg/kg)+theophylline; D—sauvagine (0.1 mg/kg)+theophylline; E—sauvagine (0.3 mg/kg)+theophylline; *—p≦0.05 compared to saline. Following casting of the right hind leg, male mice were injected subcutaneously in the midscapular region twice daily, with sauvagine or vehicle control (physiological saline) for ten days at the daily delivered dose indicated. Sauvagine was co-administered with twice daily intra-peritoneal dosing of the phosphodiesterase inhibitor theophylline (30 mg/kg). On day ten, the medial gastrocnemius and tibialis anterior muscles were removed and weighed to determine the degree of atrophy.
as §1, with “B—urocortin” for “B—theophylline; C—sauvagine (0.03 mg/kg)+theophylline; D—sauvagine (0.1 mg/kg)+theophylline; E—sauvagine”, “urocortin” for “sauvagine”, “days. Urocortin was administered” for “days”, “doses indicated in the description of FIGS. 6A and 6B. Urocortin” for “daily delivered dose indicated. Sauvagine”
Legend: A—non casted muscle control; B—casted muscle, saline control; C—casted muscle, sauvagine (0.3 mg/kg)+theophylline (30 mg/kg); *—p≦0.05 compared to saline. Following casting of the right hind leg, male mice were injected subcutaneously in the midscapular region twice daily, with either sauvagine or vehicle control (physiological saline) for ten days at the doses indicated above. Sauvagine was co-administered 30 mg/kg theophylline. On day ten, the EDL and soleus muscles were removed and absolute force and mass measurements taken to determine the degree of atrophy.
The leg casting disuse atrophy model involves casting one hind leg of an animal from the knee down through the foot. Typically, muscle mass is reduced 20-40% after ten days of casting. Following casting, test compounds are administered by injection or by continuous infusion via implantation of an osmotic minipump (e.g., Alzet, Palo Alto, Calif.) to determine their effect on leg casting induced skeletal muscle atrophy. At various times following leg casting, the extent of atrophy in the affected muscles is analyzed as described above for the denervation model.
The extensor digitorum longus (EDL) and soleus muscles are removed, tendon-to-tendon from the casted mouse leg. A silk suture is tied to each tendon of the isolated muscles and the muscles are placed into a plexiglass chamber filled with Ringer solution (137 mM sodium chloride, 24 mM sodium bicarbonate, 11 mM glucose, 5 mM potassium chloride, 1 mM magnesium sulfate, 1 mM sodium phosphate, 0.025 mM tubocurarine, all at pH 7.4 and oxygenated with 95% oxygen/5% carbon dioxide) constantly bubbled with 95% oxygen/5% carbon dioxide maintained at 25° C. Muscles are aligned horizontally between a servomotor lever arm (Model 305B-LR Cambridge Technology Inc., Watertown Mass., USA) and the stainless steel hook of a force transducer (Model BG-50; Kulite Semiconductor Products Inc., Leonia, N.J., USA) and field stimulated by pulses transmitted between two platinum electrodes placed longitudinally on either side of the muscle. Square wave pulses (0.2 ms duration) generated by a personal computer with a Labview board (Model PCI-MIO 16E-4), Labview Inc., Austin, Tex., USA) are amplified (Acurus power amplifier model A25, Dobbs Ferry, N.Y., USA) to increase titanic contraction. Stimulation voltage and muscle length (Lo) are adjusted to obtain maximum isometric twitch force. Maximum titanic force production (Po) is determined from the plateau of the frequency-force relationship.

Setting [3] is: FIG. 9A, male mice, 0.3 mg/kg s.c. twice daily + theophylline 30 mg/kg.

In the case of `CC[C@H](C)[C@H](NC(=O)[C@@H](NC(=O)[C@H](CC(=O)O)NC(=O)[C@H](CC(C)C)NC(=O)[C@H](CC(C)C)NC(=O)[C@H](CC(C)C)NC(=O)[C@H](CCCNC(=N)N)NC(=O)[C@H](CC(N)=O)NC(=O)[C@H](CC(N)=O)NC(=O)[C@H](C)NC(=O)[C@H](C)NC(=O)[C@H](CCC(N)=O)NC(=O)[C@H](CCC(N)=O)NC(=O)[C@H](CCCCN)NC(=O)[C@H](CCC(=O)O)NC(=O)[C@H](CCCCN)NC(=O)[C@H](CCC(=O)O)NC(=O)[C@H](CCC(N)=O)NC(=O)[C@H](CCCCN)NC(=O)[C@H](CCC(=O)O)NC(=O)[C@@H](NC(=O)[C@H](CCC(=O)O)NC(=O)[C@@H](NC(=O)[C@H](CCSC)NC(=O)[C@H](CCCCN)NC(=O)[C@H](CCCNC(=N)N)NC(=O)[C@H](CC(C)C)NC(=O)[C@H](CC(C)C)NC(=O)[C@H](CCC(=O)O)NC(=O)[C@H](CC(C)C)NC(=O)[C@H](CO)NC(=O)[C@H](CC(C)C)NC(=O)[C@H](CC(=O)O)NC(=O)[C@@H](NC(=O)[C@H](CO)NC(=O)[C@@H](NC(=O)[C@@H]1CCCN1C(=O)[C@@H]1CCCN1C(=O)CNC(=O)[C@@H]1CCC(=O)N1)[C@@H](C)CC)[C@@H](C)CC)[C@@H](C)CC)[C@@H](C)CC)[C@@H](C)O)C(N)=O` [sauvagine], the “glucocorticoid-induced atrophy of the tibialis anterior muscle (muscle weight)” value in assay [1] (FIG. 3A) was “inhibits glucocorticoid-induced muscle atrophy”. Also, the “glucocorticoid-induced atrophy of the medial gastrocnemius muscle (muscle weight)” value in assay [1] (FIG. 3B) is listed as “inhibits glucocorticoid-induced muscle atrophy”. Further, the “disuse-induced atrophy of the tibialis anterior muscle (muscle weight)” value in assay [2] (FIG. 4A, casted leg, male mice, 0.03-0.3 mg/kg s.c. twice daily + theophylline 30 mg/kg i.p.) is recorded as “inhibits disuse-induced atrophy”. Besides, the “hypertrophy of the tibialis anterior muscle of the non-casted leg” value in assay [2] (FIG. 4A, non-casted leg, 0.03-0.3 mg/kg s.c. twice daily + theophylline 30 mg/kg i.p.) was “statistically significant hypertrophy”. In assay [2] (FIG. 4B, casted leg, male mice, 0.03-0.3 mg/kg s.c. twice daily + theophylline 30 mg/kg i.p.), the “disuse-induced atrophy of the medial gastrocnemius muscle (muscle weight)” value is recorded as “inhibits disuse-induced atrophy”. Further, the “hypertrophy of the medial gastrocnemius muscle of the non-casted leg” value in assay [2] (FIG. 4B, non-casted leg, 0.03-0.3 mg/kg s.c. twice daily + theophylline 30 mg/kg i.p.) is “statistically significant hypertrophy”. In addition, in assay [2] (setting [3]), the “disuse-induced loss of EDL muscle mass” value is “inhibits disuse-induced loss” and the “disuse-induced loss of soleus muscle mass” value is listed as “inhibits disuse-induced loss”. Further, in assay [2] (FIG. 9B, EDL and soleus muscles, 0.3 mg/kg s.c. twice daily + theophylline 30 mg/kg), the “loss of muscle function as assessed by measurement of absolute force” value is recorded as “inhibits loss of muscle function”.
